Like-named read-outs stand apart in the source and are kept apart here.

These results are taken from article PMC7281403, “Regulation of Tumor Immunity by Lysophosphatidic Acid” (Cancers, 2020).

Series [1] relates to LPAR1. Also on record: method as in PMID 11160288. Particulars: cited from earlier work.
The test system of another series is lymphocyte. Also on record: method as in PMID 11024010, PMID 11160288. Conditions: bell shape dose-response curve dropping off above 1 µM; cited from earlier work.
Series [2] has as its target T1, LPAR2 (Homo sapiens, UniProt Q9HBW0). Details: method as in PMID 11160288. Conditions: LPA 10^−9–10^−6 M, anti-LPAR2 MAb 30–300 ng/mL; cited from earlier work.
The target in series [3] is T1, LPAR2. Details: method as in PMID 9525886. Particulars: Jurkat T cells, LPAR2 plus SRE-driven luciferase reporter; cited from earlier work.
The subject of a further series is Jurkat cell line. Also on record: method as in PMID 7775587. Particulars: cotreatment with PMA compared to PMA alone; cited from earlier work.
Details of series [4]: method as in PMID 15172836. Conditions: cited from earlier work.
Series [5] has as its system LPAR1. Also on record: method as in PMID 9525886. Particulars: Jurkat T cells, LPAR1 plus SRE-driven luciferase reporter; cited from earlier work.
The target in series [6] is T2, LPAR5 (Homo sapiens, UniProt Q9H1C0). Nature of the series: Ca2+ mobilization in LPAR5 expressing B103 cells. The series is classed as cell-based. Also on record: expressed in transfected cells; host or cells: B103 cells. The text has this:
(§1) As an example, inhibition of LPAR5 in distinct cell types, such as CD8^+ T cells could help boost its immunosurveillance activity against cancer and impede metastasis. There is currently no FDA-approved LPA receptor antagonist for cancer therapy. […] We obtained both TC-LPA5-4 and UA-02-085 and tested for LPAR5 antagonism in two independent assays: Ca^2+ mobilization and β-Arrestin recruitment. […] AGP is present in several tissues and biological fluids including tumor ascites, atherosclerotic plaques, aqueous humor of the eye, and in platelet rich plasma. Thus, alkyl-LPA might have multiple actions in the TME as well as the cancer cells. […] We included as a positive control, Amgen35, a compound originally discovered by AMGEN investigators to be a LPAR2 antagonist with an IC50 of 0.8 µM [136]. The AMGEN publication predated the discovery of the LPAR4-6. […] Amgen35 has also been reported to have off-target effects in vivo [136]. […] The other putative LPAR5 antagonist compound, AS2727638, reported by Astellas Pharma in Japan, has only been characterized at LPAR1-3 but not at the other LPAR with high homology of LPAR5 [121].

Series [7] deals with ATX (Homo sapiens, UniProt Q13822). The series can be described thus: ATX activity, fluorescent FS-3 substrate assay. The class given is biochemical. Particulars: IC50 ± SD.
Series [8] deals with T2, LPAR5. The series can be described thus: β-arrestin recruitment in LPAR5 expressing CHO-K1 cells. The series is classed as cell-based. Details: expressed in transfected cells. Conditions: LPA-induced β-arrestin recruitment, IC50 ± SD, NE = No effect, listed as TC-LPA5-4.
From the text: as §1

For series [9], the system named is ATX. Also on record: method as in PMID 34788605. Particulars: TILs from melanoma patients and peripheral CD8+ T cells; cited from earlier work.
Another series concerns CD8+ T cells. Also on record: method as in PMID 31231367. Conditions: cited from earlier work.

T2 sequence (Q9H1C0 whole entry, species assumed): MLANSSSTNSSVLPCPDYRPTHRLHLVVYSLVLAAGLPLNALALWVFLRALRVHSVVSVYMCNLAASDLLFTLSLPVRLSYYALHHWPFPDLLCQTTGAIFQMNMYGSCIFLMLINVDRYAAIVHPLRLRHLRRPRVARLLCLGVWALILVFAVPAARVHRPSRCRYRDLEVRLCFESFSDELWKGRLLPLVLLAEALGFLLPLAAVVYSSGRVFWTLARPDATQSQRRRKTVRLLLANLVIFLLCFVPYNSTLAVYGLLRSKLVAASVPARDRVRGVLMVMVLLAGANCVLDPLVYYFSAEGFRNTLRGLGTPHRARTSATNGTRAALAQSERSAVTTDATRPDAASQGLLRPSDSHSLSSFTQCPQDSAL
T1 sequence (Q9HBW0 whole entry, species assumed): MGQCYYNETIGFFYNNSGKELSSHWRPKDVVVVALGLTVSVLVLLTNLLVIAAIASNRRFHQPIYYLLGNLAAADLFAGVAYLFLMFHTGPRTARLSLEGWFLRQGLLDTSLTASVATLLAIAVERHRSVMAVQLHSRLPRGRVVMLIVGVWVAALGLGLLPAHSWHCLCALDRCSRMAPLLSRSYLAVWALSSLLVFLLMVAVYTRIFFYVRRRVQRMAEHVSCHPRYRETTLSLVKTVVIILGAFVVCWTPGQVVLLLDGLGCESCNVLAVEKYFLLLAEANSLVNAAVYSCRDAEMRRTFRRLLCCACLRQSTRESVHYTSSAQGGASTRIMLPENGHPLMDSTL

For lysophosphatidic acid [LPA], the “migratory response in LPAR1 Jurkat transfectants” value with LPAR1 [1] is reported as “neither LPA nor the anti-LPAR1 MAb induced a migratory response”. In addition, in the series on lymphocyte, the “concentration of maximal efficiency in modulating lymphocyte responses” value is reported as 10^−10 to 10^−8 M. Further, the “transmigration of LPAR2 Jurkat transfectants” value at LPAR2 [2] is on record as “stimulated the transmigration”. For the same compound, the LPA-dependent luciferase expression is 20 fold over control at LPAR2 [3] and 5 fold over control in the series with LPAR1 [5]. The “increase in IL-2 secretion” value in the series on Jurkat cell line was “five-fold”. The critical micellar concentration is reported as 1.850 mM in series [4] (acyl group myristoyl), 0.346 mM in [4] (acyl group oleoyl), 0.540 mM in series [4] (acyl group palmitoyl) and 0.082 mM in [4] (acyl group stearoyl).
With `COc1cccc(-n2nc(C(=O)O)cc2-c2ccc(C3CCCCC3)c(Cl)c2)c1` [TC-LPA-5], the “LPAR5 IC50 (Ca^2+ Mobilization)” value at LPAR5 [6] (LPA-induced Ca2+ mobilization, LPAR5 expressing B103 cells, IC50 ± SD, NE = No effect, listed as TC-LPA5-4) was “inactive”. In addition, on LPAR5 [6] (agonist alkyl glycerophosphate (AGP), unpublished), the “Inhibition of AGP-induced Ca^2+ mobilization” value was “failed to inhibit”. The compound also registered an IC50 against ATX [7] of 7.1 ± 0.6 µM. The “LPAR5 IC50 (β-arrestin)” value at LPAR5 [8] was “inactive”.
Consider `C[C@H](NC(=O)CCc1nc2cccnc2n1Cc1ccc(OC(F)(F)F)cc1)c1ccc(Cl)cc1` [IOA-289], for which the “effect of conditioned media from ATX-expressing tumor cells on T cell migration in presence of ATX inhibitor” value in the series with ATX [9] is reported as “failed to inhibit the migration of T cells”.
Consider `O=C(CCN1CCN(C(=O)OCc2cc(Cl)cc(Cl)c2)CC1)c1ccc2[nH]c(=O)oc2c1` [PF-8380], for which, in the series on ATX [9], the “effect of conditioned media from ATX-expressing tumor cells on T cell migration in presence of ATX inhibitor” value is “failed to inhibit the migration of T cells”.
Take `CCCCCCCCCCCCCCCCCCOP(O)(O)=S` [OTP, octadecyl thiophosphate]: in the series on CD8+ T cells (mouse and human CD8+ T cells), the “in vitro tumor cell killing function” value was “decreased in vitro tumor cell killing function”. The granule exocytosis entry in the series on CD8+ T cells (stimulation of CD8+ T cells) was “impaired granule exocytosis”.
